In patent publication US12628822B2, “Plant pathogen defence elicitors” (UNIVERSITÉ LIBRE DE BRUXELLES, priority 2020, dated 2026):

System: Arabidopsis transcriptome
Assay: cDNA microarray analysis of early transcriptomic changes in Arabidopsis seedlings
Format: in vivo, Arabidopsis thaliana
Conditions: 100 μM, 1 h
Procedure: Arabidopsis thaliana Columbia (Col-0) was the accession used for all the experiments. Seeds were surface sterilised by subsequent treatment with 50% v/v Et-OH and 3% bleach solution in agitation for 5 and 10 min, respectively. Seeds were then washed three times with distilled water and stratified for 3 days at 4° C. in the dark. For qPCR analysis and microarray experiments, seeds were sown on square petri dishes ([…]) containing half strength Murashige and Skoog (MS) salt, 2.5 mM MES, 1% w/v sucrose and 0.8% w/v plant agar. The experiments were performed using 14-day old seedlings grown vertically in a controlled growth cabinet with short day conditions ( 8/16 h light/dark; 100 μmol photons m^−2 s^−1) at 22±0.5° C. Treatments were performed by applying 40-50 μl of fresh-prepared and filtered solution per seedling.
For RNA extraction, 14-day old leaves from ten independent plants were collected at the indicated time point after treatments, pooled and frozen in liquid nitrogen. Total RNA was extracted from 100 mg of ground-frozen samples using the Maxwell® LEV Plant RNA Kit (Promega, Madison, WI, USA) and the RNA integrity was determined through NanoDrop 2000 UV-Vis Spectrophotometer (Thermo Scientific, Loughborough, UK). First-strand cDNA was synthesized by using SOLIScript® RT cDNA synthesis MIX (Solis Biodyne, Tartu, Estonia) and qPCRs were performed using SYBR® Selected MasterMix 2× (Applied Biosystems, Thermo Fisher Scientific, Waltham, USA), following the manufacturers' protocols. The cycling conditions consisted of an initial 7 min at 95° C., followed by 40 two-step cycles at 95° C. for 5 s and at 60° C. for 30 s. Melting curve analysis was performed after cycle completion to validate amplicon identity. Relative expression levels were calculated following the standard curve-based method (Larionov et al. A standard curve based method for relative real time PCR data processing, BMC Bioinformatics. 2005, vol. 6, 1) by using ACTIN as reference. Gene-specific primers used in this work are indicated below.
RNA sample preparation for microarray hybridization was carried out as described in the Applied Biosystems™ GeneChip™ Whole Transcript (WT) PLUS Reagent Kit User Guide (Thermo Fisher Scientific, Waltham, MA, USA). Briefly, 200 ng of total RNA was used to generate double-stranded cDNA. Twelve μg of subsequently synthesized cRNA were purified and reverse transcribed into single-stranded (ss)cDNA, where unnatural dUTP residues were incorporated. Purified and labelled sscDNAs were hybridised to Arabidopsis Gene 1.0 ST arrays (Affymetrix, Santa Clara, CA, USA) and the fluorescent signals were measured with an Applied Biosystems™ GeneChip Scanner 3000 7 G System. Sample processing was performed at a Genomics Core Facility, “KFB—Center of Excellence for Fluorescent Bioanalytics” (Regensburg, Germany).
Normalised probe set signals in log2 scale were calculated by using the RMA algorithm. Average linkage hierarchical clusters of differentially expressed genes were generated by using Cluster 3.0 and visualized by java TreeView.
In Arabidopsis, the DAMPs-dependent elicitation of PTI is known to be accompanied by a deep immune gene transcriptional reprogramming. […] The transcriptomic analysis was carried out by using Arabidopsis 1.0 ST microarray chip (Affymetrix, Santa Clara, CA, USA) and Differentially Expressed Genes (DEGs) were selected using two criteria: log2 expression ratios ≥1.5-fold or […] and Student's t-test p-value≤0.05.

With `OC[C@H]1O[C@@H](O[C@H]2[C@H](O)[C@@H](O)[C@H](O)O[C@@H]2CO)[C@H](O)[C@@H](O)[C@@H]1O` [Cellobiose, β-D-glucopyranosyl(1→4)D-glucopyranose] the “changes in expression, number of differentially expressed genes” value (14-day old Arabidopsis plants) was 440 genes, the downregulated genes (14-day old Arabidopsis plants) was 94 genes and the upregulated genes (14-day old Arabidopsis plants) was 346 genes. The “AT1G02360 putative chitinase gene expression” value (Col-0 plants, vs control) was 1.03 fold change, the “AT1G02920 glutathione S-transferase F7 gene expression” value (Col-0 plants, vs control) was 1.10 fold change and the “AT1G02930 glutathione S-transferase F6 gene expression” value (Col-0 plants, vs control) was 1.18 fold change. For the same compound, the “AT1G03220 aspartyl protease-like protein gene expression” value (Col-0 plants, vs control) was 1.08 fold change, the “AT1G07400 class I heat shock protein gene expression” value (Col-0 plants, vs control) was 2.58 fold change and the “AT1G11100 SNF2, helicase and zinc-finger domain-containing protein gene expression” value (Col-0 plants, vs control) was 1.70 fold change. The “AT1G13520 hypothetical protein gene expression” value (Col-0 plants, vs control) was 2.05 fold change, the “AT1G14540 peroxidase 4 gene expression” value (Col-0 plants, vs control) was 1.22 fold change and the “AT1G16110 wall associated kinase-like 6 gene expression” value (Col-0 plants, vs control) was 1.46 fold change. The AT1G18382 gene expression (Col-0 plants, vs control) was 1.39 fold change, the “AT1G18570 myb domain protein 51 gene expression” value (Col-0 plants, vs control) was 1.46 fold change and the “AT1G19020 hypothetical protein gene expression” value (Col-0 plants, vs control) was 1.68 fold change. For the same compound, the “AT1G24145 hypothetical protein gene expression” value (Col-0 plants, vs control) was 1.15 fold change, the “AT1G27020 hypothetical protein gene expression” value (Col-0 plants, vs control) was 1.06 fold change and the “AT1G30700 FAD-binding Berberine family protein gene expression” value (Col-0 plants, vs control) was 1.73 fold change. For the same compound, the “AT1G30755 hypothetical protein gene expression” value (Col-0 plants, vs control) was 1.08 fold change, the “AT1G36622 hypothetical protein gene expression” value (Col-0 plants, vs control) was 1.62 fold change and the “AT1G36640 hypothetical protein gene expression” value (Col-0 plants, vs control) was 1.27 fold change. The “AT1G49000 hypothetical protein gene expression” value (Col-0 plants, vs control) was 1.67 fold change, the “AT1G51790 leucine-rich repeat protein kinase-like protein gene expression” value (Col-0 plants, vs control) was 1.99 fold change and the “AT1G51800 putative leucine-rich repeat protein kinase gene expression” value (Col-0 plants, vs control) was 2.44 fold change. For the same compound, the “AT1G51820 SIF2 gene expression” value (Col-0 plants, vs control) was 6.99 fold change, the “AT1G51850 Leucine-rich repeat protein kinase family protein gene expression” value (Col-0 plants, vs control) was 4.14 fold change and the “AT1G51890 probable LRR receptor-like protein kinase gene expression” value (Col-0 plants, vs control) was 1.91 fold change. For the same compound, the “AT1G51920 hypothetical protein gene expression” value (Col-0 plants, vs control) was 1.55 fold change, the “AT1G52200 PLAC8 family protein gene expression” value (Col-0 plants, vs control) was 1.57 fold change and the “AT1G53625 hypothetical protein gene expression” value (Col-0 plants, vs control) was 1.55 fold change. For the same compound, the “AT1G54050 CIII heat shock protein 17.4 gene expression” value (Col-0 plants, vs control) was 1.36 fold change, the “AT1G55450 S-adenosyl-L-methionine-dependent methyltransferases superfamily protein gene expression” value (Col-0 plants, vs control) was 1.19 fold change and the “AT1G59865 hypothetical protein gene expression” value (Col-0 plants, vs control) was 2.57 fold change. For the same compound, the “AT1G61360 G-type lectin S-receptor-like serine/threonine-protein kinase gene expression” value (Col-0 plants, vs control) was 1.18 fold change, the “AT1G61560 MLO-like protein 6 gene expression” value (Col-0 plants, vs control) was 1.14 fold change and the “AT1G64400 long-chain acyl-CoA synthetase gene expression” value (Col-0 plants, vs control) was 1.18 fold change. The “AT1G65845 hypothetical protein gene expression” value (Col-0 plants, vs control) was 1.99 fold change, the “AT1G74310 chaperone protein ClpB1 gene expression” value (Col-0 plants, vs control) was 2.87 fold change and the “AT1G79680 wall-associated receptor kinase-like 10 gene expression” value (Col-0 plants, vs control) was 1.62 fold change. For the same compound, the “AT2G02010 glutamate decarboxylase 4 gene expression” value (Col-0 plants, vs control) was 1.11 fold change, the “AT2G15220 basic secretory protein family protein gene expression” value (Col-0 plants, vs control) was 1.08 fold change and the “AT2G17740 cysteine/histidine-rich C1 domain-containing protein gene expression” value (Col-0 plants, vs control) was 1.04 fold change. The “AT2G19190 FLG22-induced receptor-like kinase 1 gene expression” value (Col-0 plants, vs control) was 1.38 fold change, the “AT2G22880 VQ motif-containing protein gene expression” value (Col-0 plants, vs control) was 1.35 fold change and the “AT2G26150 heat stress transcription factor A-2 gene expression” value (Col-0 plants, vs control) was 2.19 fold change. The “AT2G26560 phospholipase A 2A gene expression” value (Col-0 plants, vs control) was 2.02 fold change, the “AT2G27660 cysteine/histidine-rich C1 domain-containing protein gene expression” value (Col-0 plants, vs control) was 1.63 fold change and the “AT2G29500 HSP20 family protein gene expression” value (Col-0 plants, vs control) was 3.11 fold change. For the same compound, the “AT2G36220 hypothetical protein gene expression” value (Col-0 plants, vs control) was 1.44 fold change, the “AT2G36690 2-oxoglutarate (2OG) and Fe(II)-dependent oxygenase superfamily protein gene expression” value (Col-0 plants, vs control) was 1.99 fold change and the “AT2G38870 PR-6 proteinase inhibitor family protein gene expression” value (Col-0 plants, vs control) was 1.27 fold change. For the same compound, the “AT2G39200 protein MILDEW RESISTANCE LOCUS O 12 gene expression” value (Col-0 plants, vs control) was 2.09 fold change, the “AT2G39210 major facilitator protein gene expression” value (Col-0 plants, vs control) was 1.67 fold change and the “AT2G39518 hypothetical protein gene expression” value (Col-0 plants, vs control) was 2.22 fold change. The “AT2G43620 chitinase family protein gene expression” value (Col-0 plants, vs control) was 2.15 fold change, the “AT2G44490 PEN2 gene expression” value (Col-0 plants, vs control) was 1.20 fold change and the “AT2G46240 BCL-2-associated athanogene 6 gene expression” value (Col-0 plants, vs control) was 2.00 fold change. The “AT3G08970 J domain protein ATERDJ3A gene expression” value (Col-0 plants, vs control) was 2.46 fold change, the “AT3G09350 protein Fes1A gene expression” value (Col-0 plants, vs control) was 2.18 fold change and the “AT3G12580 heat shock protein 70-4 gene expression” value (Col-0 plants, vs control) was 3.24 fold change. The “AT3G12910 no apical meristem domain-containing transcriptional regulator gene expression” value (Col-0 plants, vs control) was 1.36 fold change, the “AT3G14200 chaperone DnaJ-domain containing protein gene expression” value (Col-0 plants, vs control) was 2.55 fold change and the “AT3G15500 ATAF-like NAC-domain transcription factor gene expression” value (Col-0 plants, vs control) was 1.20 fold change. The “AT3G16030 G-type lectin S-receptor-like serine/threonine-protein kinase CES101 gene expression” value (Col-0 plants, vs control) was 1.47 fold change, the “AT3G22060 Receptor-like protein kinase-related family protein gene expression” value (Col-0 plants, vs control) was 1.31 fold change and the “AT3G24500 multiprotein-bridging factor 1c gene expression” value (Col-0 plants, vs control) was 1.75 fold change. The “AT3G26210 cytochrome P450 71B23 gene expression” value (Col-0 plants, vs control) was 1.35 fold change.
